# Assay results: ChEMBL document CHEMBL1157949, “Kalanchosine dimalate, an anti-inflammatory salt from Kalanchoe brasiliensis” (J Nat Prod, 2006)
# Calls of active or inactive are those of the source. The rule behind the calls is not given here.
# Tested on: Mus musculus
# Experiment: Antiinflammatory activity against zymosan-induced inflammation in mouse assessed as impairment of increase in popliteal lymph node weight at 240 mg/kg, ip administered daily 2 days before zymosan challenge measured after 5 days
# Format: functional, organism-based
# Set-up: dose 240 mg/kg
smiles,measurement,value
NC(CC(=O)O)C(O)C(O)C(N)CC(=O)O (stereo unspecified),Activity,Active
